Key:
kidney = assay: Toxicity to kidney determined by blood examination; type: in vivo, mice; details: serum
In short: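 One day after dosing, mice fasted 18 h with water only, then blood taken. Serum glucose, urea nitrogen and creatinine measured by dry-chemistry slides; values are means of eight mice.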

B cell = assay: Test on B cell blast transformation reaction, spleen cells of treated mice; type: in vivo, C3H/He mice; details: for Relative activity (%): no administration = 100
Experimental: Cells of spleen of C3H/He mice to which OPQ was administered were obtained in the same manner as in Example 38.
Further, intake amount of ^3H-thymidine was examined in the same manner as in Example 38 except that 25 µg/ml or 50 µg/ml of lipopolysaccharide (LPS WE E. coli 0111, Difco) was used in place of the concanavalin A as mitogen. Values in the table are average values of intake amount (cpm) of ^3H in culture under four same conditions.
In Examples 36 - 40, macrophage activity was examined according to chemotaxis of peritoneal macrophage (literature 1) and activity of T cell and that of B cell were examined according to blast transformation reaction using concanavalin A and lipopolysaccharide, (LPS) as mitogen (literature 2). Literature 1: "Function of Macrophage and Method of Measurement of Function", pages 61-65 1985), edited by Educational Committee of Japan Bacteriological Society and published from Saikon Shuppan Co.) Literature 2: "New Method of Searching of Function of Lymphocytes", pages 350-355 (1987) edited by Junichi Yada and Michio Fujiwara and published from Chugai Igaku Co.

[1] = system: carbon tetrachloride (CCl4)-induced liver diseases; assay: Pharmacological activity on carbon tetrachloride-induced liver diseases; type: in vivo, SD rats; details: CCl4 1 ml/kg rat; for GPT: Table 26: CCl4 only 1521, no administration 24; for Total bilirubin: Table 26: CCl4 only 1.5, no administration 0.9; for GOT: Table 26: CCl4 only 3266, no administration 140
Experimental: Twentyfive SD rats (male, 7 weeks old, body weight: about 220 g; supplied by Japan Charles River Co.) were divided to five groups (A-E) each consisting of five rats.
All rats were fasted for 16 hours and 1.1 ml of solutions containing 0.4 mg/ml, 1.0 mg/ml and 2.0 mg/ml of OPQ were intraperitoneally administered to the rats of groups C, D and E, respectively and furthermore, after 40 minutes, OPQ in the same dosage as above was intraperitoneally administered, respectively. In these cases, OPQ was used as a solution in physiological saline. To the rats of group B was intraperitoneally administered 1.1 ml of physiological saline in place of the OPQ solution.
Furthermore, after 20 minutes, 2.2 ml of 10 % carbon tetrachloride solution (in olive oil) was administered to stomach of the rats of groups B-E. Neither OPQ nor carbon tetrachloride was administered to the rats of group A.
After 24 hours from administration of carbon tetrachloride, blood was collected from abdominal aorta and serum was obtained by centrifugal separation.
GPT, GOT and amount of total bilirubin were measured by clinical examination reagent (trademark: FUJI Dry Chemslide manufactured by Fuji Photo Film Co., Ltd.). The results are shown in Table 26 by average value of five rats.

[2] = system: D-galactosamine-induced liver diseases; assay: Pharmacological effect on D-galactosamine-induced liver diseases; type: in vivo, SD rats; details: intraperitoneally twice, 1.2 ml of 0.4, 1.0, 2.0 or 3.0 mg/ml; serum 23 hours after D-galactosamine
Experimental: Thirty SD rats (male, 7 weeks old, body weight: about 240 g; supplied by Japan Charles River Co.) were divided to six groups (A-F) each consisting of five rats. All rats were fasted for 18 hours and 1.2 ml of solutions containing 0.4 mg/ml, 1.0 mg/ml, 2.0 mg/ml, and 3.0 mg/ml of OPQ were intraperitoneally administered to rats of groups C, D, E and F, respectively, and furthermore, after lapse of 40 minutes, OPQ in the same doses as above were intraperitoneally administered to the rats, respectively. In these cases, the OPQ was dissolved in physiological saline and administered to the rats. For the rats of group B, 1.2 ml of physiological saline was intraperitoneally administered in place of the OPQ solution.
Furthermore, after lapse of 20 minutes, 1.2 ml of a solution containing 0.2 mg/ml of D-galactosamine was subcutaneously injected to the rats of groups B-F. Neither OPQ nor D-galactosamine was administered to the rats of group A.
After lapse of 23 hours from administration of D-galactosamine, blood was collected from abdominal aorta and serum was obtained by centrifugal separation.
GPT, GOT and total amount of bilirubin were measured by clinical examination reagent (trademark: FUJI DRYCHEMSLIDE manufactured by Fuji Photo Film Co., Ltd.). The results are shown in Table 28 by average value of five rats.

[3] = 2 mg/kg rat twice intraperitoneally
[4] = 5 mg/kg rat twice intraperitoneally
[5] = 10 mg/kg rat twice intraperitoneally

Question: How did the Creatinine (kidney; 40 mg/kg mouse intraperitoneally, Table 2, no administration 0.8) turn out when `O=C(O)c1cc(C(=O)O)c2c(n1)c1ncoc1c1cc(C(=O)O)[nH]c12` [OPQ, oxazopyrroloquinoline] was run?
Answer: 0.7 mg/dL

Question: What about the Urea nitrogen (kidney; 40 mg/kg mouse intraperitoneally, Table 2, no administration 24) of the same molecule?
Answer: 25 mg/dL

Question: What about the Glucose (kidney; 40 mg/kg mouse intraperitoneally, Table 2, no administration 78) of the same molecule?
Answer: 90 mg/dL

Question: And the Creatinine (kidney; 80 mg/kg mouse intraperitoneally, Table 2, no administration 0.8)?
Answer: 0.8 mg/dL

Question: What about the Urea nitrogen (kidney; 80 mg/kg mouse intraperitoneally, Table 2, no administration 24) of the same molecule?
Answer: 23 mg/dL

Question: And the Glucose (kidney; 80 mg/kg mouse intraperitoneally, Table 2, no administration 78)?
Answer: 86 mg/dL

Question: What about the Creatinine (kidney; 150 mg/kg mouse intraperitoneally, Table 3, no administration 0.7) of the same molecule?
Answer: 0.8 mg/dL

Question: What about the Urea nitrogen (kidney; 150 mg/kg mouse intraperitoneally, Table 3, no administration 28) of the same molecule?
Answer: 32 mg/dL

Question: And the Glucose (kidney; 150 mg/kg mouse intraperitoneally, Table 3, no administration 105)?
Answer: 106 mg/dL

Question: And the Creatinine (kidney; 160 mg/kg mouse intraperitoneally, Table 2, no administration 0.8)?
Answer: 0.7 mg/dL

Question: And the Urea nitrogen (kidney; 160 mg/kg mouse intraperitoneally, Table 2, no administration 24)?
Answer: 27 mg/dL

Question: And the Glucose (kidney; 160 mg/kg mouse intraperitoneally, Table 2, no administration 78)?
Answer: 90 mg/dL

Question: And the Creatinine (kidney; 200 mg/kg mouse intraperitoneally, Table 2, no administration 0.8)?
Answer: 0.8 mg/dL

Question: And the Urea nitrogen (kidney; 200 mg/kg mouse intraperitoneally, Table 2, no administration 24)?
Answer: 28 mg/dL

Question: What about the Glucose (kidney; 200 mg/kg mouse intraperitoneally, Table 2, no administration 78) of the same molecule?
Answer: 85 mg/dL

Question: And the Creatinine (kidney; 300 mg/kg mouse intraperitoneally, Table 3, no administration 0.7)?
Answer: 0.8 mg/dL

Question: What about the Urea nitrogen (kidney; 300 mg/kg mouse intraperitoneally, Table 3, no administration 28) of the same molecule?
Answer: 29 mg/dL

Question: What about the Glucose (kidney; 300 mg/kg mouse intraperitoneally, Table 3, no administration 105) of the same molecule?
Answer: 80 mg/dL

Question: And the Creatinine (kidney; 400 mg/kg mouse intraperitoneally, Table 3, no administration 0.7)?
Answer: 0.8 mg/dL

Question: What about the Urea nitrogen (kidney; 400 mg/kg mouse intraperitoneally, Table 3, no administration 28) of the same molecule?
Answer: 30 mg/dL

Question: What about the Glucose (kidney; 400 mg/kg mouse intraperitoneally, Table 3, no administration 105) of the same molecule?
Answer: 94 mg/dL

Question: What about the Creatinine (kidney; 600 mg/kg mouse intraperitoneally, Table 3, no administration 0.7) of the same molecule?
Answer: 0.8 mg/dL

Question: And the Urea nitrogen (kidney; 600 mg/kg mouse intraperitoneally, Table 3, no administration 28)?
Answer: 34 mg/dL

Question: And the Glucose (kidney; 600 mg/kg mouse intraperitoneally, Table 3, no administration 105)?
Answer: 74 mg/dL

Question: What about the “Relative activity (%)” value (B cell; 5mg/kg mouse x 7 days, Lipopolysaccharide 25 µg/ml) of the same molecule?
Answer: 108%

Question: And the “Relative activity (%)” value (B cell; 5mg/kg mouse x 7 days, Lipopolysaccharide 50 µg/ml)?
Answer: 109%

Question: And the “intake amount (cpm) of ^3H” value (B cell; 5mg/kg mouse x 7 days, Lipopolysaccharide (LPS) 0 µg/ml, no administration 6562)?
Answer: 9303 cpm

Question: What about the “intake amount (cpm) of ^3H” value (B cell; 5mg/kg mouse x 7 days, Lipopolysaccharide (LPS) 25 µg/ml, no administration 34557) of the same molecule?
Answer: 37434 cpm

Question: And the “intake amount (cpm) of ^3H” value (B cell; 5mg/kg mouse x 7 days, Lipopolysaccharide (LPS) 50 µg/ml, no administration 42247)?
Answer: 46193 cpm

Question: What about the “Relative activity (%)” value (B cell; 10mg/kg mouse x 7 days, Lipopolysaccharide 25 µg/ml) of the same molecule?
Answer: 121%

Question: And the “Relative activity (%)” value (B cell; 10mg/kg mouse x 7 days, Lipopolysaccharide 50 µg/ml)?
Answer: 126%

Question: What about the “intake amount (cpm) of ^3H” value (B cell; 10mg/kg mouse x 7 days, Lipopolysaccharide (LPS) 0 µg/ml, no administration 6562) of the same molecule?
Answer: 9301 cpm

Question: What about the “intake amount (cpm) of ^3H” value (B cell; 10mg/kg mouse x 7 days, Lipopolysaccharide (LPS) 25 µg/ml, no administration 34557) of the same molecule?
Answer: 41876 cpm

Question: What about the “intake amount (cpm) of ^3H” value (B cell; 10mg/kg mouse x 7 days, Lipopolysaccharide (LPS) 50 µg/ml, no administration 42247) of the same molecule?
Answer: 53267 cpm

Question: What about the GPT ([1]; 2 mg/kg rat twice intraperitoneally, serum after 24 hours) of the same molecule?
Answer: 1057 U/l

Question: What about the Total bilirubin [1, 3] of the same molecule?
Answer: 1.2 mg/dL

Question: And the GOT [1, 3]?
Answer: 2402 U/l

Question: And the Total bilirubin [1, 4]?
Answer: 1.2 mg/dL

Question: What about the GPT [1, 4] of the same molecule?
Answer: 553 U/l

Question: What about the GOT [1, 4] of the same molecule?
Answer: 1892 U/l

Question: What about the Total bilirubin [1, 5] of the same molecule?
Answer: 1.1 mg/dL

Question: What about the GPT [1, 5] of the same molecule?
Answer: 650 U/l

Question: What about the GOT [1, 5] of the same molecule?
Answer: 1907 U/l

Question: And the “GPT, GOT and total amount of bilirubin which increased by administration of D-galactosamine” value [2]?
Answer: all sharply decreased
